In the supplement of paper PMC10307832:

Tests used:
Assay in all cases: relative viability (nuclei count vs DMSO), 5 days (fraction); higher = more cells survive
201T = tested on: 201T
Summary of the method: (§1)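 Lung cancer cell lines, seeded in 1536-well plates, were treated the following day by pin tool with a single drug or with five library-drug doses (not always all listed) in √10 steps on top of a fixed anchor-drug dose. Cells were fixed and nuclei stained in one step after 5 days, and nuclei were counted. Relative viability is the nuclei count for treated wells divided by that for vehicle wells, reported as medians of duplicate plates.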

COR-L 105 = tested on: COR-L 105
Summary of the method: as §1

COR-L23 = tested on: COR-L23
Summary of the method: as §1

EKVX = tested on: EKVX
Summary of the method: as §1

EPLC-272H = tested on: EPLC-272H
Summary of the method: as §1

H3255 = tested on: H3255
Summary of the method: as §1

HCC-15 = tested on: HCC-15
Summary of the method: as §1

HCC-827 = tested on: HCC-827
Summary of the method: as §1

LCLC-97TM1 = tested on: LCLC-97TM1
Summary of the method: as §1

NCI-H1395 = tested on: NCI-H1395
Summary of the method: as §1

NCI-H1648 = tested on: NCI-H1648
Summary of the method: as §1

NCI-H1650 = tested on: NCI-H1650
Summary of the method: as §1

NCI-H1651 = tested on: NCI-H1651
Summary of the method: as §1

NCI-H1792 = tested on: NCI-H1792
Summary of the method: as §1

NCI-H1915 = tested on: NCI-H1915
Summary of the method: as §1

NCI-H2023 = tested on: NCI-H2023
Summary of the method: as §1

NCI-H322M = tested on: NCI-H322M
Summary of the method: as §1

NCI-H358 = tested on: NCI-H358
Summary of the method: as §1

NCI-H460 = tested on: NCI-H460
Summary of the method: as §1

NCI-H520 = tested on: NCI-H520
Summary of the method: as §1

NCI-H596 = tested on: NCI-H596
Summary of the method: as §1

NCI-H647 = tested on: NCI-H647
Summary of the method: as §1

SK-MES-1 = tested on: SK-MES-1
Summary of the method: as §1

SW 900 = tested on: SW 900
Summary of the method: as §1

## Oc1nc(-c2ccc(C(F)(F)F)cc2)nc2c1CSCC2 [XAV939] + O=C(c1cc(Cc2n[nH]c(=O)c3ccccc23)ccc1F)N1CCN(C(=O)C2CC2)CC1 [Olaparib] (partner 8 µM)
201T; first compound 0.08 µM
  relative viability: 0.855
201T; first compound 0.253 µM
  relative viability: 0.814
201T; first compound 0.8 µM
  relative viability: 0.687
201T; first compound 2.53 µM
  relative viability: 0.745
COR-L 105; first compound 0.08 µM
  relative viability: 0.57
COR-L 105; first compound 0.253 µM
  relative viability: 0.486
COR-L 105; first compound 0.8 µM
  relative viability: 0.494
COR-L 105; first compound 2.53 µM
  relative viability: 0.561
COR-L23; first compound 0.08 µM
  relative viability: 0.321
COR-L23; first compound 0.253 µM
  relative viability: 0.386
COR-L23; first compound 0.8 µM
  relative viability: 0.315
COR-L23; first compound 2.53 µM
  relative viability: 0.29
EKVX; first compound 0.08 µM
  relative viability: 0.929
EKVX; first compound 0.253 µM
  relative viability: 0.514
EKVX; first compound 0.8 µM
  relative viability: 0.65
EKVX; first compound 2.53 µM
  relative viability: 0.378
EPLC-272H; first compound 0.08 µM
  relative viability: 0.745
EPLC-272H; first compound 0.253 µM
  relative viability: 0.89
EPLC-272H; first compound 0.8 µM
  relative viability: 0.97
EPLC-272H; first compound 2.53 µM
  relative viability: 0.719
H3255; first compound 0.08 µM
  relative viability: 0.598
H3255; first compound 0.253 µM
  relative viability: 0.563
H3255; first compound 0.8 µM
  relative viability: 0.553
H3255; first compound 2.53 µM
  relative viability: 0.51
HCC-15; first compound 0.08 µM
  relative viability: 0.693
HCC-15; first compound 0.253 µM
  relative viability: 0.717
HCC-15; first compound 0.8 µM
  relative viability: 0.67
HCC-15; first compound 2.53 µM
  relative viability: 0.676
HCC-827; first compound 0.08 µM
  relative viability: 0.622
HCC-827; first compound 0.253 µM
  relative viability: 0.667
HCC-827; first compound 0.8 µM
  relative viability: 0.62
HCC-827; first compound 2.53 µM
  relative viability: 0.769
LCLC-97TM1; first compound 0.08 µM
  relative viability: 0.326
LCLC-97TM1; first compound 0.253 µM
  relative viability: 0.425
LCLC-97TM1; first compound 2.53 µM
  relative viability: 0.279
NCI-H1395; first compound 0.08 µM
  relative viability: 0.47
NCI-H1395; first compound 0.253 µM
  relative viability: 0.449
NCI-H1395; first compound 0.8 µM
  relative viability: 0.478
NCI-H1395; first compound 2.53 µM
  relative viability: 0.425
NCI-H1648; first compound 0.253 µM
  relative viability: 0.63
NCI-H1648; first compound 0.8 µM
  relative viability: 1.12
NCI-H1648; first compound 2.53 µM
  relative viability: 0.355
NCI-H1650; first compound 0.08 µM
  relative viability: 0.762
NCI-H1650; first compound 0.253 µM
  relative viability: 0.633
NCI-H1650; first compound 0.8 µM
  relative viability: 0.749
NCI-H1650; first compound 2.53 µM
  relative viability: 0.61
NCI-H1651; first compound 0.08 µM
  relative viability: 0.181
NCI-H1651; first compound 0.253 µM
  relative viability: 0.19
NCI-H1651; first compound 0.8 µM
  relative viability: 0.205
NCI-H1651; first compound 2.53 µM
  relative viability: 0.196
NCI-H1792; first compound 0.08 µM
  relative viability: 0.602
NCI-H1792; first compound 0.253 µM
  relative viability: 0.379
NCI-H1792; first compound 0.8 µM
  relative viability: 0.398
NCI-H1792; first compound 2.53 µM
  relative viability: 0.268
NCI-H1915; first compound 0.08 µM
  relative viability: 0.247
NCI-H1915; first compound 0.253 µM
  relative viability: 0.256
NCI-H1915; first compound 0.8 µM
  relative viability: 0.239
NCI-H1915; first compound 2.53 µM
  relative viability: 0.275
NCI-H2023; first compound 0.08 µM
  relative viability: 0.531
NCI-H2023; first compound 0.253 µM
  relative viability: 0.38
NCI-H2023; first compound 0.8 µM
  relative viability: 0.463
NCI-H2023; first compound 2.53 µM
  relative viability: 0.402
NCI-H322M; first compound 0.08 µM
  relative viability: 0.874
NCI-H322M; first compound 0.253 µM
  relative viability: 0.752
NCI-H322M; first compound 0.8 µM
  relative viability: 0.667
NCI-H322M; first compound 2.53 µM
  relative viability: 0.661
NCI-H358; first compound 0.08 µM
  relative viability: 0.615
NCI-H358; first compound 0.253 µM
  relative viability: 0.5
NCI-H358; first compound 0.8 µM
  relative viability: 0.598
NCI-H358; first compound 2.53 µM
  relative viability: 0.563
NCI-H460; first compound 0.08 µM
  relative viability: 0.58
NCI-H460; first compound 0.253 µM
  relative viability: 0.35
NCI-H460; first compound 0.8 µM
  relative viability: 0.395
NCI-H460; first compound 2.53 µM
  relative viability: 0.271
NCI-H520; first compound 0.08 µM
  relative viability: 0.375
NCI-H520; first compound 0.8 µM
  relative viability: 0.342
NCI-H520; first compound 2.53 µM
  relative viability: 0.356
NCI-H596; first compound 0.08 µM
  relative viability: 0.769
NCI-H596; first compound 0.253 µM
  relative viability: 0.644
NCI-H596; first compound 0.8 µM
  relative viability: 0.776
NCI-H596; first compound 2.53 µM
  relative viability: 0.556
NCI-H647; first compound 0.08 µM
  relative viability: 0.734
NCI-H647; first compound 0.253 µM
  relative viability: 0.451
NCI-H647; first compound 0.8 µM
  relative viability: 0.506
NCI-H647; first compound 2.53 µM
  relative viability: 0.439
SK-MES-1; first compound 0.08 µM
  relative viability: 0.664
SK-MES-1; first compound 0.253 µM
  relative viability: 0.605
SK-MES-1; first compound 0.8 µM
  relative viability: 0.621
SK-MES-1; first compound 2.53 µM
  relative viability: 0.465
SW 900; first compound 0.253 µM
  relative viability: 0.844
SW 900; first compound 0.8 µM
  relative viability: 0.832
SW 900; first compound 2.53 µM
  relative viability: 0.421
